Reference: ChEMBL document CHEMBL1287709, “Trifluoromethylphenyl as P2 for ketoamide-based cathepsin S inhibitors” (Bioorg Med Chem Lett, 2010)

Legend:
Cathepsin S [1] = molecular target: T1, Cathepsin S (Homo sapiens, UniProt P25774); assay: Inhibition of human cathepsin S by fluorescence assay
Cathepsin K = molecular target: T2, Cathepsin K (Homo sapiens, UniProt P43235); assay: Inhibition of human cathepsin K by fluorescence assay
T2 sequence (P43235 whole entry): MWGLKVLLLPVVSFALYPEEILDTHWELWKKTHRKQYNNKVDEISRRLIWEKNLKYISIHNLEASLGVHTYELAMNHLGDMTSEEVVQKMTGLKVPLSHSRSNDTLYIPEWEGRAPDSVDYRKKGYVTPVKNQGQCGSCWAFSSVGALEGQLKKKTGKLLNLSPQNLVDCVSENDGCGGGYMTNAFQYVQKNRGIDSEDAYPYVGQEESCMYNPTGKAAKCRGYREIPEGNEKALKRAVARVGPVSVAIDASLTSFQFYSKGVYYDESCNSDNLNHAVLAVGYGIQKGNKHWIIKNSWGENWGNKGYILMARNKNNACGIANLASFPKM

Cathepsin B = Cathepsin B (Homo sapiens, UniProt P07858); assay: Inhibition of human cathepsin B by fluorescence assay
Procathepsin L = Procathepsin L (Homo sapiens, UniProt P07711); assay: Inhibition of human cathepsin L by fluorescence assay
Cathepsin L2 = molecular target: T3, Cathepsin L2 (Homo sapiens, UniProt O60911); assay: Inhibition of human cathepsin V by fluorescence assay
T3 sequence (O60911 whole entry): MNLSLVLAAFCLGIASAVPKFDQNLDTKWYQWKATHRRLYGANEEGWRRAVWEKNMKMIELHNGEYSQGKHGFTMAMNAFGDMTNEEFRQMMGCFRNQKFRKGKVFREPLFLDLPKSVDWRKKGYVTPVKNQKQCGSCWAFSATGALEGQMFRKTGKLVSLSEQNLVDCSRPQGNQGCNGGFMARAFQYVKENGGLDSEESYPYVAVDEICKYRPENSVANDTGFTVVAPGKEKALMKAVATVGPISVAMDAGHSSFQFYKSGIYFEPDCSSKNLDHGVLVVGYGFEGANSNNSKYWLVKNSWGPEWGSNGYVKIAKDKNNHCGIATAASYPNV

Cathepsin S [2] = molecular target: T1, Cathepsin S; assay: Inhibition of cathepsin S in human JY cells assessed as Lip10 accumulation by Western blotting; assay type: cell-based

Chain of Procathepsin L (P07711 whole entry): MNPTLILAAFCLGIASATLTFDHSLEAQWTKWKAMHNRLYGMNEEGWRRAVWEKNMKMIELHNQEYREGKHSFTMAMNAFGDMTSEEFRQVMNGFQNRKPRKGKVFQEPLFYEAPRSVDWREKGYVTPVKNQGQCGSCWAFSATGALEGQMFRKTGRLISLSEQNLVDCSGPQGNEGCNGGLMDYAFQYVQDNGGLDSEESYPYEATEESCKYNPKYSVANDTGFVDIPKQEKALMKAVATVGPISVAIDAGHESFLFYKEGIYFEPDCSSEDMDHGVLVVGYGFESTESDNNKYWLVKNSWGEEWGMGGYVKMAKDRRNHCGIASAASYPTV
T1 sequence (P25774 whole entry): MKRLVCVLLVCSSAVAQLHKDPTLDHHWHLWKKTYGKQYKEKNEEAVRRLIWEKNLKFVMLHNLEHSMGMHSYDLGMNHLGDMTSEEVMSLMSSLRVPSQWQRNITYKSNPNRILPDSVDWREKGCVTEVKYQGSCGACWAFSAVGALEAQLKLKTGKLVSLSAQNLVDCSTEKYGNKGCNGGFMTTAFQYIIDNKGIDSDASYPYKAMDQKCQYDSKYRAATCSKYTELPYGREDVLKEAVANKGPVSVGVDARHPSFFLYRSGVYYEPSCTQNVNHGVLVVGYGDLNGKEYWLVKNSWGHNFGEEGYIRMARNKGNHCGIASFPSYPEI

| SMILES | IC50 (Cathepsin S [1]) [nM] | IC50 (Cathepsin K) [nM] | IC50 (Cathepsin B) [nM] | IC50 (Procathepsin L) [nM] | IC50 (Cathepsin L2) [nM] | IC50 (Cathepsin S [2]) [nM] |
| --- | --- | --- | --- | --- | --- | --- |
| N#CCNC(=O)c1cccc(C(F)(F)F)c1 | > 10000 | > 10000 | – | – | – | – |
| O=CCNC(=O)c1cccc(C(F)(F)F)c1 | > 10000 | > 10000 | – | – | – | – |
| CCC(C=O)NC(=O)c1cccc(C(F)(F)F)c1 (stereo not drawn) | 1070 | – | – | – | – | – |
| CCC(C=O)NC(=O)c1cccc(C(F)(F)F)c1Cl (stereo not drawn) | 31 | 32 | – | – | – | – |
| CCC(C=O)NC(=O)c1cccc(C(F)(F)F)c1F (stereo not drawn) | 36 | – | – | – | – | – |
| CCC(C=O)NC(=O)c1cccc(C(F)(F)F)c1C (stereo not drawn) | 18 | – | – | – | – | – |
| CC(C=O)NC(=O)c1cccc(C(F)(F)F)c1Cl (stereo not drawn) | 110 | – | – | – | – | – |
| CCC(C=O)NC(=O)c1cccc(C(F)(F)F)c1OC (stereo not drawn) | 692 | – | – | – | – | – |
| CC(NC(=O)c1cccc(C(F)(F)F)c1Cl)C(=O)C(N)=O (stereo not drawn) | 30.9 | 107 | – | – | – | – |
| CC(NC(=O)c1cccc(C(F)(F)F)c1Cl)C(=O)C(=O)Nc1cc[nH]n1 (stereo not drawn) | 14.1 | 51.3 | – | – | – | – |
| Cc1cc(NC(=O)C(=O)C(C)NC(=O)c2cccc(C(F)(F)F)c2Cl)[nH]n1 (stereo not drawn) | 10.5 | 26.3 | – | – | – | – |
| CC(NC(=O)c1cccc(C(F)(F)F)c1Cl)C(=O)C(=O)Nc1ccn(C)n1 (stereo not drawn) | 8.5 | 33.1 | – | – | – | – |
| CCC(NC(=O)c1cccc(C(F)(F)F)c1Cl)C(=O)C(=O)Nc1ccn[nH]1 (stereo not drawn) | 2.3 | 11.7 | 5750 | 891 | 29.5 | 1300 |
| CCOc1ccc(C(=O)NC(C)C(=O)C(N)=O)c(Cl)c1C(F)(F)F (stereo not drawn) | 11 | 195 | – | – | – | – |
| CCOc1ccc(C(=O)NC(C)C(=O)C(=O)Nc2ccn[nH]2)c(Cl)c1C(F)(F)F (stereo not drawn) | 2.9 | 91.2 | – | – | – | – |
| CC(NC(=O)c1ccc(OCc2ccccn2)c(C(F)(F)F)c1Cl)C(=O)C(N)=O (stereo not drawn) | 4.8 | 37.2 | – | – | – | – |
| CCC(NC(=O)c1ccc(OCc2ccccn2)c(C(F)(F)F)c1Cl)C(=O)C(N)=O (stereo not drawn) | 1.1 | – | – | – | – | 1920 |
| CC(NC(=O)c1ccc(OCc2ccccn2)c(C(F)(F)F)c1Cl)C(=O)C(=O)Nc1ccn(C)n1 (stereo not drawn) | 1 | 12.9 | 15100 | 479 | 36.3 | – |
| CCC(NC(=O)c1ccc(OCc2ccccn2)c(C(F)(F)F)c1Cl)C(=O)C(=O)Nc1ccn(C)n1 (stereo not drawn) | 1.1 | 20.9 | 3240 | 141 | 16.6 | 78 |
| CC(C)C(NC(=O)c1ccc(OCc2ccccn2)c(C(F)(F)F)c1Cl)C(=O)C(=O)Nc1ccn(C)n1 (stereo not drawn) | 2.3 | 11.5 | – | – | – | – |
| CCCCC(NC(=O)c1ccc(OCc2ccccn2)c(C(F)(F)F)c1Cl)C(=O)C(=O)Nc1ccn(C)n1 (stereo not drawn) | 1.9 | 47.9 | – | – | – | – |
| CNC(=O)C(=O)C(C)NC(=O)c1ccc(OCc2ccccn2)c(C(F)(F)F)c1Cl (stereo not drawn) | 19.5 | 46.8 | > 10000 | > 10000 | 1120 | – |
| CC(NC(=O)c1ccc(OCc2ccccn2)c(C(F)(F)F)c1Cl)C(=O)C(=O)N(C)C (stereo not drawn) | > 10000 | > 10000 | > 10000 | > 10000 | > 10000 | – |
